Source: patent US4772615A, “Various N-substituted 3-piperidine carboxylic acids or N-substituted 3-pyridinecarboxylic acids and derivatives thereof” (Warner-Lambert Company, priority 1987, dated 1988)
Where a name gives a salt, the structure may show the parent alone. Read-outs that look alike come from different tables or passages of the source.

Columns and labels:
[1] = tested on: uptake of the neurotransmitter gamma-amino-butyric acid (GABA) into slices of rat hippocampal (brain) tissue; assay: Uptake of 3H-GABA into slices (prisms) of rat hippocampus in vitro; type: biochemical, Male Long Evans rats; conditions: 3H-GABA 0.05 μM; 10 mg tissue, 15 min with test compound at 37° C., 2 min uptake; read-out: IC50 (Calculated Median (50%) Inhibitory Concentration)
Protocol: The compounds of formula I are tested for pharmacological activity using three procedures. The first is an assay for the uptake of the neurotransmitter gamma-amino-butyric acid (GABA) into slices of rat hippocampal (brain) tissue incubated in vitro analogous to those described by Johnston, GAR, et al, in J. Neurochem. 26:1029-1032 (1976) entitled "Inhibition of the Uptake of GABA and Related Amino Acids in Rat Brain Slices by the Optical Isomers of Nipecotic Acid." Methods for this test are described in the following paragraph.
Male Long Evans rats (200-300 g) were sacrificed by decapitation, the brains quickly removed and the hippocampi were dissected out. Slices were cut (0.1×0.1 mm) on a McIlwain tissue chopper and dispersed in ice-chilled Krebs Ringer HEPES-buffered medium. Normal medium was composed of: NaCl (119 mM), KCl (4.75 mM), CaCl2 (1.25 mM), KH2 PO4 (1.20 mM), MgSO4 (1.18 mM), HEPES (22 mM), EDTA (0.03 mM), ascorbate (0.6 mM), and glucose (10 mM). The pH was adjusted to 7.2 with 3.0M Tris HCl. Following two washes in normal medium, 10 mg of tissue was incubated in a 3 ml volume of medium at 37° C. for 15 min in the presence or absence of test compound. ^3 H-GABA (80.8 Ci/mmole; 0.05 μM final concentration) was added to each flask and the uptake was allowed to proceed for a two min period. At the end of the uptake period, samples were rapidly filtered through Whatman GF/F filters and washed once with 5 ml ice-chilled 0.9% sodium chloride. The filters with tissue were placed into scintillation vials with 2 ml H2 O and allowed to sit for at least 60 min before scintillation fluid was added and samples counted. Blanks were treated in a manner similar to other samples, but were left on ice throughout the experiment. Results are expressed as percent control (no drug present) or IC50 value.
Table I. GABA uptake into prisms of rat hippocampus in vitro in the presence of different concentrations of various synthetic compounds of formula I.

[2] = tested on: tonic hindlimb extensor seizures; assay: Threshold Maximal Electroshock (animal model for generalized seizures); type: in vivo, Male CF-1 mice; conditions: Mus musculus, ip, 0.5 h
Protocol: Male CF-1 mice (22-30 grams) are allowed free access to food and water prior to testing. For screening, groups of five mice are given a compound intraperitoneally at doses of 30, 100, and 300 mg/kg and tested at 0.5, 2.0, and 4.0 hr after dosing. Drugs are either dissolved in 0.9% saline or suspended in 0.2% methylcellulose. Animals are shocked with corneal electrodes (see below) and observed for tonic hindlimb extensor seizures. Absence of hindlimb extension is taken as an anticonvulsant effect.
The electroshock apparatus delivers a 60 Hz sine wave with a current amplitude of 14 mA (peak-to-peak) for 0.2 seconds. The current strength of 14 mA used in this procedure produces tonic extensor seizures in approximately 95% of untreated mice, but is only slightly above threshold for tonic extension.

[3] = tested on: threshold clonic seizures in mice caused by subcutaneous administration of pentylenetetrazol; assay: Attenuation of threshold clonic seizures in mice caused by subcutaneous pentylenetetrazol (model for absence type seizures); type: in vivo; conditions: Mus musculus, pentylenetetrazol 85 mg/kg s.c., read-out: Calculated Median Effective Dose (ED50)
Protocol: A third pharmacological test was performed as described in R. L. Krall et al, Epilepsia, 19:409 (1978), which is incorporated herein by reference. In this procedure, drugs were tested for attenuation of threshold clonic seizures in mice caused by subcutaneous administration of pentylenetetrazol (85 mg/kg) which is a generally accepted model for absence type seizures. Results from the third test for the compound when administered either intraperitoneally (IP) or orally (PO) are shown below in Table III.

[4] = read-out: Number of Animals Protected from Seizures (n/5)
[5] = 30 mg/kg, intraperitoneal, 30 minutes after administration, read-out: Number of Animals Protected from Seizures (n/5)
[6] = 2 h, PO, tested 120 min following dosing

| Structure (SMILES) | IC50 [1] | responders at 30 mg/kg [2, 4] | responders at 100 mg/kg [2, 4] | responders at 30 mg/kg [2, 5] | responders at 100 mg/kg ([2]; 100 mg/kg, intraperitoneal, 30 minutes after administration, read-out: Number of Animals Protected from Seizures (n/5) (converted)) | ED50 ([3]; 0.5 h, IP, tested 30 min following dosing) | ED50 [3, 6] |
| --- | --- | --- | --- | --- | --- | --- | --- |
| CCOC(=O)C1CCCN(CCOC(c2ccc(Cl)cc2)c2ccc(Cl)cc2)C1 (centres unmarked) [Example I, 3-Piperidinecarboxylic acid 1-[2-[bis-(4-chlorophenyl)methoxy]ethyl]-, ethyl ester] | 12 µM | 0% | 60% |  |  |  |  |
| O=C(O)C1CCCN(CCOC(c2ccccc2)c2ccc(Cl)c(Cl)c2)C1 (centres unmarked) [Example IX, 3-Piperidinecarboxylic acid, 1-[2-[(3,4-dichlorophenyl)phenylmethoxy]ethyl]-, monohydrochloride] |  | 60% | 80% |  |  |  |  |
| CCOC(=O)C1CCCN(CCOC(c2ccccc2)c2ccccc2)C1 (centres unmarked) [II, 3-Piperidinecarboxylic acid, 1-[2-(diphenylmethoxy)ethyl]-, ethyl ester] | ~35 µM | 20% | 80% |  |  |  |  |
| CCOC(=O)C1CCCN(CCCOC(c2ccccc2)c2ccccc2)C1 (centres unmarked) [III, 3-Piperidinecarboxylic acid, 1-[3-(diphenylmethoxy)propyl]-, ethyl ester, monohydrochloride] |  |  |  | 0% |  |  |  |
| CCOC(=O)C1CCCN(CCSC(c2ccccc2)c2ccccc2)C1 (centres unmarked) [IV, 3-Piperidinecarboxylic acid, 1-[2-[(diphenylmethyl)thio]ethyl]-, ethyl ester] | ~60 µM |  |  |  |  |  |  |
| O=C(O)C1CCCN(CCCOC(c2ccccc2)c2ccccc2)C1 (centres unmarked) [VI, 3-Piperidinecarboxylic acid, 1-[3-diphenylmethoxy)propyl]-, monohydrochloride] | 11 µM |  |  | 0% | 20% |  |  |
| Cl.O=C(O)C1CCCN(CCOC(c2ccccc2)c2ccccc2)C1 (centres unmarked) [VII, 3-Piperidinecarboxylic acid, 1-[2-(diphenylmethoxy)ethyl]-, monohydrochloride] | 3 µM | 25% | 50% |  |  | 1.9 mg/kg |  |
| O=C(O)C1CCCN(CCOC(c2ccc(Cl)cc2)c2ccc(Cl)cc2)C1 (centres unmarked) [VIII, 3-piperidinecarboxylic acid, 1-[2-[bis(4-chlorophenyl)methoxy]ethyl]monohydrochloride] | 0.29 µM | 80% | 80% |  |  |  | 0.54 mg/kg |
| O=C(O)C1CCCN(CCOC(c2ccccc2)c2ccc(Cl)c(C(F)(F)F)c2)C1 (centres unmarked) [X, 3-Piperidinecarboxylic acid, 1-[2-[[4-chloro-3-(trifluoromethyl)phenyl]phenylmethoxy]ethyl]monohydrochloride] | 0.86 µM | 20% | 100% |  |  |  |  |
| O=C(O)C1CCCN(CCOC2c3ccccc3C=Cc3ccccc32)C1 (centres unmarked) [XI, 3-Piperidinecarboxylic acid, 1-[2-[(5H-dibenzo[a,d]cyclohepten-5-yloxy)ethyl]]-] |  | 20% | 40% |  |  |  |  |
| O=C(O)C1CCCN(CCOC(c2ccc(F)cc2)c2ccc(F)cc2)C1 (centres unmarked) [XIII, 3-Piperidinecarboxylic acid, 1-[2-[bis (4-fluorophenyl)methoxy]ethyl]-, monohydrochloride] |  | 40% | 40% |  |  |  |  |
| O=C(O)C1=CCCN(CCOC(c2ccc(Cl)cc2)c2ccc(Cl)cc2)C1 [XIX, 3-Pyridinecarboxylic acid, 1-[2-[bis(4-chlorophenyl)methoxy]ethyl]-1,2,5,6-tetrahydro, hydrochloride] | 0.1 µM | 80% | 100% |  |  |  |  |
| Cl.O=C(O)C1=CCCN(CCOC(c2ccc(C(F)(F)F)cc2)c2ccc(C(F)(F)F)cc2)C1 [XVII, 3-Pyridinecarboxylic acid, 1-[2-[bis[4-(trifluoromethyl)phenyl]methoxy]ethyl]-1,2,5,6-tetrahydro-, monohydrochloride] | 0.45 µM | 80% | 80% |  |  |  | 0.5 mg/kg |
| O=C(O)C1CCCN(CCOC(c2ccc(C(F)(F)F)cc2)c2ccc(C(F)(F)F)cc2)C1 (centres unmarked) [XVIII, 3-Piperidinecarboxylic acid, 1-[2-[bis[4-(trifluoromethyl)phenyl]methoxy]ethyl]-, hydrochloride] | 0.7 µM | 100% | 100% |  |  |  |  |
